# Measured values as given in patent publication US11078202B2, “β-lactamase inhibitor and use thereof” (priority 2018, dated 2021).
# Counter-ions that a name gives are not always drawn.
# Tests used:
# Format in all cases: cell-based
# [1] = system: Acinetobacter baumannii XNWB 0007; assay: MIC assay of test compounds combined with ceftazidime (8 μg/mL); conditions: ceftazidime 8 μg/mL fixed
# Outline: (§1)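 Broth microdilution in CAMHB per CLSI guidance: colonies grown on TSA at 35±2 °C for 20-24 h were suspended in 0.9% NaCl to OD600 0.1-0.15 and diluted 300-fold in 1.1×CAMHB. Compound plus fixed β-lactam plates were incubated at 35±2 °C for 16-20 h before the MIC was recorded.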
# [2] = system: Klebsiella pneumoniae XNWB 0001; assay: as above; conditions: ceftazidime 8 μg/mL fixed
# Outline: as §1
# [3] = system: Klebsiella pneumoniae XNWB 0002; assay: as above; conditions: ceftazidime 8 μg/mL fixed
# Outline: as §1
# [4] = system: Klebsiella pneumoniae XNWB 0003; assay: as above; conditions: ceftazidime 8 μg/mL fixed
# Outline: as §1
# [5] = system: Klebsiella pneumoniae XNWB 0004; assay: as above; conditions: ceftazidime 8 μg/mL fixed
# Outline: as §1
# [6] = system: Klebsiella pneumoniae XNWB 0005; assay: as above; conditions: ceftazidime 8 μg/mL fixed
# Outline: as §1
# [7] = system: Klebsiella pneumoniae XNWB 0006; assay: as above; conditions: ceftazidime 8 μg/mL fixed
# Outline: as §1
# [8] = system: Pseudomonas aeruginosa XNWB 0008; assay: as above; conditions: ceftazidime 8 μg/mL fixed
# Outline: as §1
# [9] = system: Acinetobacter baumannii XNWB 0007; assay: MIC assay of test compounds combined with imipenem (4 μg/mL); conditions: imipenem 4 μg/mL fixed
# Outline: as §1
# [10] = system: Klebsiella pneumoniae XNWB 0001; assay: as above; conditions: imipenem 4 μg/mL fixed
# Outline: as §1
# [11] = system: Klebsiella pneumoniae XNWB 0002; assay: as above; conditions: imipenem 4 μg/mL fixed
# Outline: as §1
# [12] = system: Klebsiella pneumoniae XNWB 0003; assay: as above; conditions: imipenem 4 μg/mL fixed
# Outline: as §1
# [13] = system: Klebsiella pneumoniae XNWB 0004; assay: as above; conditions: imipenem 4 μg/mL fixed
# Outline: as §1
# [14] = system: Klebsiella pneumoniae XNWB 0005; assay: as above; conditions: imipenem 4 μg/mL fixed
# Outline: as §1
# [15] = system: Klebsiella pneumoniae XNWB 0006; assay: as above; conditions: imipenem 4 μg/mL fixed
# Outline: as §1
# [16] = system: Pseudomonas aeruginosa XNWB 0008; assay: as above; conditions: imipenem 4 μg/mL fixed
# Outline: as §1
smiles,measurement,setting,value
"O=C1N2C[C@H](N1OS(=O)(=O)O)C1(CC1)C[C@H]2c1ccon1 [Example 54, (1R,4S)-4-(isoxazol-3-yl)-6-oxo-5,7-diazaspiro[bicyclo[3.2.1]octane-2,1′-cyclopropan]-7-yl sulfate]",The minimum concentration of test compounds combined with ceftazidime (8 μg/mL) for bacteriostasis,[1],C (C: 16-128 μg/mL)
same,The minimum concentration of test compounds combined with ceftazidime (8 μg/mL) for bacteriostasis,[2],B (B: 8-16 μg/mL)
same,The minimum concentration of test compounds combined with ceftazidime (8 μg/mL) for bacteriostasis,[3],A (A: <8 μg/mL)
same,The minimum concentration of test compounds combined with ceftazidime (8 μg/mL) for bacteriostasis,[4],B (B: 8-16 μg/mL)
same,The minimum concentration of test compounds combined with ceftazidime (8 μg/mL) for bacteriostasis,[5],C (C: 16-128 μg/mL)
same,The minimum concentration of test compounds combined with ceftazidime (8 μg/mL) for bacteriostasis,[6],C (C: 16-128 μg/mL)
same,The minimum concentration of test compounds combined with ceftazidime (8 μg/mL) for bacteriostasis,[7],A (A: <8 μg/mL)
same,The minimum concentration of test compounds combined with ceftazidime (8 μg/mL) for bacteriostasis,[8],C (C: 16-128 μg/mL)
same,The minimum concentration of test compounds combined with imipenem (4 μg/mL) for bacteriostasis,[9],C (C: 16-128 μg/mL)
same,The minimum concentration of test compounds combined with imipenem (4 μg/mL) for bacteriostasis,[10],A (A: <8 μg/mL)
same,The minimum concentration of test compounds combined with imipenem (4 μg/mL) for bacteriostasis,[11],A (A: <8 μg/mL)
same,The minimum concentration of test compounds combined with imipenem (4 μg/mL) for bacteriostasis,[12],A (A: <8 μg/mL)
same,The minimum concentration of test compounds combined with imipenem (4 μg/mL) for bacteriostasis,[13],A (A: <8 μg/mL)
same,The minimum concentration of test compounds combined with imipenem (4 μg/mL) for bacteriostasis,[14],A (A: <8 μg/mL)
same,The minimum concentration of test compounds combined with imipenem (4 μg/mL) for bacteriostasis,[15],A (A: <8 μg/mL)
same,The minimum concentration of test compounds combined with imipenem (4 μg/mL) for bacteriostasis,[16],C (C: 16-128 μg/mL)
"O=C1N2C[C@H](N1OS(=O)(=O)O)C1(CC1)C[C@H]2c1cc(CC2CNC2)on1 [Example 49, (1R,4S)-4-(5-(azetidin-3-ylmethyl)isoxazol-3-yl)-6-oxo-5,7-diazaspiro[bicycle[3.2.1]octane-2,1′-cyclopropan]-7-yl sulfate]",The minimum concentration of test compounds combined with ceftazidime (8 μg/mL) for bacteriostasis,[1],C (C: 16-128 μg/mL)
same,The minimum concentration of test compounds combined with ceftazidime (8 μg/mL) for bacteriostasis,[2],A (A: <8 μg/mL)
same,The minimum concentration of test compounds combined with ceftazidime (8 μg/mL) for bacteriostasis,[3],A (A: <8 μg/mL)
same,The minimum concentration of test compounds combined with ceftazidime (8 μg/mL) for bacteriostasis,[4],A (A: <8 μg/mL)
same,The minimum concentration of test compounds combined with ceftazidime (8 μg/mL) for bacteriostasis,[5],B (B: 8-16 μg/mL)
same,The minimum concentration of test compounds combined with ceftazidime (8 μg/mL) for bacteriostasis,[6],A (A: <8 μg/mL)
same,The minimum concentration of test compounds combined with ceftazidime (8 μg/mL) for bacteriostasis,[7],A (A: <8 μg/mL)
same,The minimum concentration of test compounds combined with ceftazidime (8 μg/mL) for bacteriostasis,[8],B (B: 8-16 μg/mL)
same,The minimum concentration of test compounds combined with imipenem (4 μg/mL) for bacteriostasis,[9],C (C: 16-128 μg/mL)
same,The minimum concentration of test compounds combined with imipenem (4 μg/mL) for bacteriostasis,[10],A (A: <8 μg/mL)
same,The minimum concentration of test compounds combined with imipenem (4 μg/mL) for bacteriostasis,[11],A (A: <8 μg/mL)
same,The minimum concentration of test compounds combined with imipenem (4 μg/mL) for bacteriostasis,[12],A (A: <8 μg/mL)
same,The minimum concentration of test compounds combined with imipenem (4 μg/mL) for bacteriostasis,[13],A (A: <8 μg/mL)
same,The minimum concentration of test compounds combined with imipenem (4 μg/mL) for bacteriostasis,[14],A (A: <8 μg/mL)
same,The minimum concentration of test compounds combined with imipenem (4 μg/mL) for bacteriostasis,[15],A (A: <8 μg/mL)
same,The minimum concentration of test compounds combined with imipenem (4 μg/mL) for bacteriostasis,[16],A (A: <8 μg/mL)
"N[C@H]1C[C@H](c2cc([C@@H]3CC4(CC4)[C@@H]4CN3C(=O)N4OS(=O)(=O)O)no2)C1 [Example 25, (1R,4S)-4-(5-((1S,3S)-3-aminocyclobutyl)isoxazol-3-yl)-6-oxo-5,7-diazaspiro[bicycle [3.2.1]octane-2,1′-cyclopropan]-7-yl sulfate]",The minimum concentration of test compounds combined with ceftazidime (8 μg/mL) for bacteriostasis,[1],C (C: 16-128 μg/mL)
same,The minimum concentration of test compounds combined with ceftazidime (8 μg/mL) for bacteriostasis,[2],A (A: <8 μg/mL)
same,The minimum concentration of test compounds combined with ceftazidime (8 μg/mL) for bacteriostasis,[3],A (A: <8 μg/mL)
same,The minimum concentration of test compounds combined with ceftazidime (8 μg/mL) for bacteriostasis,[4],A (A: <8 μg/mL)
same,The minimum concentration of test compounds combined with ceftazidime (8 μg/mL) for bacteriostasis,[5],B (B: 8-16 μg/mL)
same,The minimum concentration of test compounds combined with ceftazidime (8 μg/mL) for bacteriostasis,[6],A (A: <8 μg/mL)
same,The minimum concentration of test compounds combined with ceftazidime (8 μg/mL) for bacteriostasis,[7],A (A: <8 μg/mL)
same,The minimum concentration of test compounds combined with ceftazidime (8 μg/mL) for bacteriostasis,[8],B (B: 8-16 μg/mL)
same,The minimum concentration of test compounds combined with imipenem (4 μg/mL) for bacteriostasis,[9],C (C: 16-128 μg/mL)
same,The minimum concentration of test compounds combined with imipenem (4 μg/mL) for bacteriostasis,[10],A (A: <8 μg/mL)
same,The minimum concentration of test compounds combined with imipenem (4 μg/mL) for bacteriostasis,[11],A (A: <8 μg/mL)
same,The minimum concentration of test compounds combined with imipenem (4 μg/mL) for bacteriostasis,[12],A (A: <8 μg/mL)
same,The minimum concentration of test compounds combined with imipenem (4 μg/mL) for bacteriostasis,[13],A (A: <8 μg/mL)
same,The minimum concentration of test compounds combined with imipenem (4 μg/mL) for bacteriostasis,[14],A (A: <8 μg/mL)
same,The minimum concentration of test compounds combined with imipenem (4 μg/mL) for bacteriostasis,[15],A (A: <8 μg/mL)
same,The minimum concentration of test compounds combined with imipenem (4 μg/mL) for bacteriostasis,[16],A (A: <8 μg/mL)
"N=C(N)NCCc1nnc([C@@H]2CC3(CC3)[C@@H]3CN2C(=O)N3OS(=O)(=O)O)o1 [Example 5, (1R,4S)-4-(5-(2-guanidinoethyl)-1,3,4-oxadiazol-2-yl)-6-oxo-5,7-diazaspiro[bicycle [3.2.1]octane-2,1′-cyclopropan]-7-yl sulfate]",The minimum concentration of test compounds combined with ceftazidime (8 μg/mL) for bacteriostasis,[1],C (C: 16-128 μg/mL)
same,The minimum concentration of test compounds combined with ceftazidime (8 μg/mL) for bacteriostasis,[2],A (A: <8 μg/mL)
same,The minimum concentration of test compounds combined with ceftazidime (8 μg/mL) for bacteriostasis,[3],A (A: <8 μg/mL)
same,The minimum concentration of test compounds combined with ceftazidime (8 μg/mL) for bacteriostasis,[4],A (A: <8 μg/mL)
same,The minimum concentration of test compounds combined with ceftazidime (8 μg/mL) for bacteriostasis,[5],B (B: 8-16 μg/mL)
same,The minimum concentration of test compounds combined with ceftazidime (8 μg/mL) for bacteriostasis,[6],B (B: 8-16 μg/mL)
same,The minimum concentration of test compounds combined with ceftazidime (8 μg/mL) for bacteriostasis,[7],A (A: <8 μg/mL)
same,The minimum concentration of test compounds combined with ceftazidime (8 μg/mL) for bacteriostasis,[8],C (C: 16-128 μg/mL)
same,The minimum concentration of test compounds combined with imipenem (4 μg/mL) for bacteriostasis,[9],B (B: 8-16 μg/mL)
same,The minimum concentration of test compounds combined with imipenem (4 μg/mL) for bacteriostasis,[10],A (A: <8 μg/mL)
same,The minimum concentration of test compounds combined with imipenem (4 μg/mL) for bacteriostasis,[11],A (A: <8 μg/mL)
same,The minimum concentration of test compounds combined with imipenem (4 μg/mL) for bacteriostasis,[12],A (A: <8 μg/mL)
same,The minimum concentration of test compounds combined with imipenem (4 μg/mL) for bacteriostasis,[13],A (A: <8 μg/mL)
same,The minimum concentration of test compounds combined with imipenem (4 μg/mL) for bacteriostasis,[14],A (A: <8 μg/mL)
same,The minimum concentration of test compounds combined with imipenem (4 μg/mL) for bacteriostasis,[15],A (A: <8 μg/mL)
same,The minimum concentration of test compounds combined with imipenem (4 μg/mL) for bacteriostasis,[16],B (B: 8-16 μg/mL)
